The target of one data set is Neprilysin (Homo sapiens, UniProt P08473). Description: Inhibition of human NEP using N-Dansyl-D-Ala-Gly-p-nitro-Phe-Gly as substrate preincubated for 10 mins followed by substrate addition measured after 2 hrs by spectrophotometric analysis.
The nature of data set [1]: 1-octanol-PBS distribution coefficient, Log D of the compound at pH 7.4 after 2 hrs by LC-MS analysis. The data set is classed as physicochemical.
The nature of data set [2]: Solubility of the compound in PBS buffer at pH 7.4 after 24 hrs by LC-MS/MS analysis. Format: physicochemical.
The target of data set [3] is T1, Endothelin-converting enzyme 1 (Homo sapiens, UniProt P42892).
T1 sequence (P42892 whole entry): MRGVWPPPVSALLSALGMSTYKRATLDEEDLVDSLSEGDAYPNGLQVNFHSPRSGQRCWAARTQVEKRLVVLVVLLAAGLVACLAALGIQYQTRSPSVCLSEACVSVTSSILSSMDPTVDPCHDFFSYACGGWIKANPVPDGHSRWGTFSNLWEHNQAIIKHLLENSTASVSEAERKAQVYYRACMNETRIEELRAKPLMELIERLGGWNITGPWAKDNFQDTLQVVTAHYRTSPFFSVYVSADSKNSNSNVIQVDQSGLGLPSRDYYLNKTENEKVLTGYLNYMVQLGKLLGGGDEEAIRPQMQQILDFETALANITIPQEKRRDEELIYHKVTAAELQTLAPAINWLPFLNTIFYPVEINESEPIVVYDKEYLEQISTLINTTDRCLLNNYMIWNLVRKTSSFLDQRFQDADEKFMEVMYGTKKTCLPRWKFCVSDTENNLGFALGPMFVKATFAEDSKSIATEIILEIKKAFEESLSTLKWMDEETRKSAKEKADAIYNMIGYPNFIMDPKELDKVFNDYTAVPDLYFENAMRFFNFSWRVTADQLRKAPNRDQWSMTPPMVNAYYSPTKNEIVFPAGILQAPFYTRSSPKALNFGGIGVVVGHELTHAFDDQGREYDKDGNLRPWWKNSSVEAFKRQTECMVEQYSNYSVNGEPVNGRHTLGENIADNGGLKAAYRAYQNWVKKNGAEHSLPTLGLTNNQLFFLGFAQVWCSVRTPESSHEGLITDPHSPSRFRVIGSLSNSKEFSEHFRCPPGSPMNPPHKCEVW
The experiment in a line: Inhibition of ECE-1 in human NCO cells using Mca-Arg-Pro-Pro-GlyPhe-Ser-Ala-DpaOH as substrate after 45 mins by fluorescence assay. Format: cell-based.

Data set [4] has as its target Angiotensin-converting enzyme (Homo sapiens, UniProt P12821). Description: Inhibition of human ACE-1 using Abz-Gly-p-nitro-Phe-Pro-OH as substrate preincubated for 10 mins followed by substrate addition measured after 17 hrs by spectrophotometric analysis.
The nature of data set [5]: Half life in rat plasma at 10 uM by LC-MS/MS. The data set is classed as ADME, cell-free.
Data set [6] is described as follows: Stability of the compound assessed as GSH adduct formation by LC-MS analysis. The data set is classed as ADME.

Converted amounts (≈) assume the structure as drawn. A value given as a limit tells only on which side of the number the result lay.

Sequence of Neprilysin (P08473 whole entry): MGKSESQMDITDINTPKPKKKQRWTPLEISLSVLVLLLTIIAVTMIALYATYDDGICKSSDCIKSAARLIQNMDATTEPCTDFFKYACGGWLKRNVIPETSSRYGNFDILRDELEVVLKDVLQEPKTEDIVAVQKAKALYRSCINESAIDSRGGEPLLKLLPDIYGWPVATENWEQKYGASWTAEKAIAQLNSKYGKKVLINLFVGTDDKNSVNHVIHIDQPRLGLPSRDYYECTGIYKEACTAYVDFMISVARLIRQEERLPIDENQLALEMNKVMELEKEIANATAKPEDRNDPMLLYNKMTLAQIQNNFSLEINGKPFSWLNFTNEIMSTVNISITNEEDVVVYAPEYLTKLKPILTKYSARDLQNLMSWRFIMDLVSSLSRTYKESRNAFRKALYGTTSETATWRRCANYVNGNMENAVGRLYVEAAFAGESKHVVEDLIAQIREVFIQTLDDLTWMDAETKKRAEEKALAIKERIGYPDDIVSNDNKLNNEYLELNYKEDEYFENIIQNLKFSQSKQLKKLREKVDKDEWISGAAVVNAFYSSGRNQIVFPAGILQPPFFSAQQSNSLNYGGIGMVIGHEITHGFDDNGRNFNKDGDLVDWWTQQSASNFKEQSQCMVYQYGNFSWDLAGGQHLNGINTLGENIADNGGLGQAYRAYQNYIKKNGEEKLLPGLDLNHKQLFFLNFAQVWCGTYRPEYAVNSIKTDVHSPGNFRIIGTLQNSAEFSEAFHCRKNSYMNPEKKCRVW
Sequence of Angiotensin-converting enzyme (P12821 whole entry): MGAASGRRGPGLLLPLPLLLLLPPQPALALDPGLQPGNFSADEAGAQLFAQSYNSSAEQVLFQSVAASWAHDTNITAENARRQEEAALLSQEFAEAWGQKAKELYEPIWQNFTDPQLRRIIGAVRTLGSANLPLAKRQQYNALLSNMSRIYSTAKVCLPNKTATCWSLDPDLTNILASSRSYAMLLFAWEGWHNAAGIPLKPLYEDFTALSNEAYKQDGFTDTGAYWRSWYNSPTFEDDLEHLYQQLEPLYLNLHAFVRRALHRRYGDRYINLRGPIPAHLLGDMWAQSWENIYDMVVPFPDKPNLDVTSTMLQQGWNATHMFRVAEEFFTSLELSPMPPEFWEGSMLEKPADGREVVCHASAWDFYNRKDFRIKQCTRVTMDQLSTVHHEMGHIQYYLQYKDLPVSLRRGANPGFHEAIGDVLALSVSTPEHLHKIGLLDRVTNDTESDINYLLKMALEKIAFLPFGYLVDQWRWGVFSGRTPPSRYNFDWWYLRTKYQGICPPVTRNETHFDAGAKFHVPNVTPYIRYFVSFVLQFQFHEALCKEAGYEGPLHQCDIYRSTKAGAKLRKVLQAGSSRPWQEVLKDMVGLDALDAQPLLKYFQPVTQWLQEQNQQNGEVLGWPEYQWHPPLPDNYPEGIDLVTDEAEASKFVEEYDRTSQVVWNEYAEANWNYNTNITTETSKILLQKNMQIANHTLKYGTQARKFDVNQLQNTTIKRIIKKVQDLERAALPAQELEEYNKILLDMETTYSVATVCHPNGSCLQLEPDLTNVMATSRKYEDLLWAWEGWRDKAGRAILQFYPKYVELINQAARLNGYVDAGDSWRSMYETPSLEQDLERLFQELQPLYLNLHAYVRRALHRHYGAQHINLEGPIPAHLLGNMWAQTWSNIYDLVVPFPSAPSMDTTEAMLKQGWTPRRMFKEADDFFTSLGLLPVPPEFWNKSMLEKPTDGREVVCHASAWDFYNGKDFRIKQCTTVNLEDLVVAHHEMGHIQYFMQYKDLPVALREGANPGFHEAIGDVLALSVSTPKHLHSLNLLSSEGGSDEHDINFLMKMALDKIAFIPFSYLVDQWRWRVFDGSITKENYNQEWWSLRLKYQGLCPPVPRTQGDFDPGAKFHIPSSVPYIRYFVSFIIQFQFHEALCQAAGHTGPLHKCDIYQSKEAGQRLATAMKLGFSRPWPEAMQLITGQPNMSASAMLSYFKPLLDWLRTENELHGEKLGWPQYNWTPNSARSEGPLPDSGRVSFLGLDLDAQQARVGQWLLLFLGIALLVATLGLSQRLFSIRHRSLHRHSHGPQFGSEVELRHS

`COC(=O)[C@@H](CC(=O)N[C@@H](CO)C(=O)O)CC(C)C`: on Neprilysin, the IC50 (in general, the concentration that gives 50% inhibition) was greater than 1000 µM.

Regarding `COC(=O)[C@@H](CC(=O)N[C@H](CO)C(=O)O)CC(C)C`, the IC50 against Neprilysin was greater than 1000 µM.

As to `CC(C)C[C@H](CC(=O)O)C(=O)N[C@@H](CO)C(=O)O`, the log distribution coefficient (logD) (in general, lipophilicity at a set pH, counting ionised and neutral species) at 2 h in data set [1] is -3.8. Besides, the solubility (in general, how much of the substance goes into solution per volume) at 24 h in data set [2] was greater than 200 µM. For the same compound, the results for the IC50 (in data set [3]; on Neprilysin; in data set [4]) were greater than 31.6 µM, 6.31 µM and greater than 31.6 µM, respectively. In data set [5], the half-life (in general, the time needed for the level to fall by half in the phase considered) at 10 µM is greater than 24 h.

At Neprilysin, `COC(=O)[C@H](CC(=O)N[C@H](CO)C(=O)O)CC(C)C` had an IC50 greater than 1000 µM.

The compound `CC(C)C[C@@H](CC(=O)O)C(=O)N[C@@H](CO)C(=O)O` returned a pH-dependent lipophilicity (logD) at 2 h in data set [1] of -3.7. Further, the Stability result in data set [6] is recorded as “Stable”. Further, the solubility at 24 h in data set [2] was greater than 200 µM. Further, the IC50 in data set [3] was greater than 31.6 µM; on Neprilysin it was 0.0631 µM; in data set [4] it was greater than 31.6 µM. In data set [5], this compound returned a half-life at 10 µM greater than 24 h.

Take `COC(=O)[C@H](CC(C)C)NC(=O)N[C@@H](CO)C(=O)O`: the concentration for half-maximal inhibition (IC50) against Neprilysin is greater than 1000 µM.

Turning to `COC(=O)[C@H](CC(C)C)NC(=O)N[C@H](CO)C(=O)O` (single isomer, unassigned), on Neprilysin, the IC50 is greater than 1000 µM.

Compound `COC(=O)[C@H](CC(=O)N[C@@H](CO)C(=O)O)CC(C)C` registered a solubility at 24 h in data set [2] of 160 µM (≈ 44 µg/mL). The same compound had an IC50 against Neprilysin of 79.4 µM. In data set [5], this compound had a half-life at 10 µM of 0.1 h.

Turning to `CC(C)C[C@H]1CC(=O)N([C@@H](CO)C(=O)O)C1=O`, the Stability result in data set [6] was “Unstable”. On Neprilysin, this compound gave a 50% inhibitory concentration (IC50) of 2.51 µM.

Take `CC(C)C[C@@H](CC(=O)N[C@@H](CO)C(=O)O)C(=O)O`: the pH-dependent lipophilicity (logD) at 2 h in data set [1] is -3.4. For the same compound, the solubility at 24 h in data set [2] is greater than 200 µM. The concentration for half-maximal inhibition (IC50) was greater than 31.6 µM in data set [3], 0.794 µM at Neprilysin and greater than 31.6 µM in data set [4]. In data set [5], this compound had a half-life at 10 µM greater than 24 h.

With `CC(C)C[C@H](CC(=O)N[C@@H](CO)C(=O)O)C(=O)O`, the logD at 2 h in data set [1] was -3.8. Further, the solubility at 24 h in data set [2] was greater than 200 µM. The IC50 is greater than 31.6 µM in data set [3], greater than 1000 µM against Neprilysin and greater than 31.6 µM in data set [4]. In data set [5], the half-life at 10 µM was greater than 24 h.

For the compound `COC(=O)C(CC(C)C)C(=O)N[C@H](CO)C(=O)O` (mixture of isomers), on Neprilysin, the 50% inhibitory concentration (IC50) is greater than 1000 µM.

The compound `COC(=O)C(CC(C)C)C(=O)N[C@@H](CO)C(=O)O` (mixture of isomers) showed a concentration for half-maximal inhibition (IC50) against Neprilysin of 50.1 µM.
